Reference: US10202377B2, “3-(1H-benzo[D]imidazol-2-yl)-1H-pyrazolo[3,4-C]pyridine and therapeutic uses thereof” (Samumed, LLC, priority 2014, dated 2019)

How the values were obtained:
[1] = test system: Wnt activity (Sp5-Luc reporter, SW480 colon carcinoma cells); experiment: Sp5-Luc Wnt reporter gene screening assay in SW480 colon carcinoma cells; details: Homo sapiens
[2] = test system: primary human fibroblasts derived from IPF patients (LL29 cells); experiment: Inhibition of fibrosis (αSMA staining) in TGF-β1-treated primary human fibroblasts from IPF patients; type: cell-based; details: Fibroblast, 96 h, TGF-β1 20 ng/mL, 4 days
Protocol: The above synthesized compounds were screened using primary human fibroblasts (derived from IPF patients) treated with TGF-β1 to determine their ability to inhibit the fibrotic process.
Compound Screening: Each compound was dissolved in DMSO as a 10 mM stock and used to prepare compound source plates. […] LL29 cells were plated at 1,500 cells/well in 80 μl/well F12 medium supplemented with 1% Fetal Bovine Serum. One hour after addition of the cells, TGF-β1 (Peprotech; 20 ng/mL) was added to the plates to induce fibrosis (ref. 1 and 2 above). Wells treated with TGF-β1 and containing DMSO were used as controls. Cells were incubated at 37° C. and 5% CO2 for 4 days. Following incubation for 4 days, SYTOX green nucleic acid stain (Life Technologies [Thermo Fisher Scientific]) was added to the wells at a final concentration of 1 uM and incubated at room temperature for 30 min. Cells were then fixed using 4% formaldehyde (Electron Microscopy Sciences), washed 3 times with PBS followed by blocking and permeabilization using 3% Bovine Serum Albumin (BSA; Sigma) and 0.3% Triton X-100 (Sigma) in PBS. Cells were then stained with antibody specific to α-smooth muscle actin (aSMA; Abcam) (ref. 1 and 2 above) in 3% Bovine Serum Albumin (BSA; Sigma) and 0.3% Triton X-100 (Sigma) in PBS, and incubated overnight at 4° C. […] Dead or apoptotic cells were excluded from analysis based on positive SYTOX green staining. % of total cells positive for αSMA were counted in each well and normalized to the average of 11 wells treated with TGF-β1 on the same plate using Dotmatics' Studies Software. […] The EC50 values are reported.

| SMILES | IC50 [1] | EC50 [2] |
| --- | --- | --- |
| Fc1cccc(-c2cccc3[nH]c(-c4n[nH]c5cnc(-c6cncc(CN7CCC(F)(F)C7)c6)cc45)nc23)c1 [Compound 25, 5-(5-((3,3-Difluoropyrrolidin-1-yl)methyl)pyridin-3-yl)-3-(4-(3-fluorophenyl)-1H-benzo[d]imidazol-2-yl)-1H-pyrazolo[3,4-c]pyridine] | 87.3 nM | 48 nM |
| CC(C)CC(=O)Nc1cncc(-c2cc3c(-c4nc5c(-c6ccc(F)cc6)cccc5[nH]4)n[nH]c3cn2)c1 [Compound 28, N-(5-(3-(4-(4-Fluorophenyl)-1H-benzo[d]imidazol-2-yl)-1H-pyrazolo[3,4-c]pyridin-5-yl)pyridin-3-yl)-3-methylbutanamide] | 90.8 nM | 741 nM |
| Fc1ccc(-c2cccc3[nH]c(-c4n[nH]c5cnc(-c6cncc(CN7CCCC7)c6)cc45)nc23)cc1 [Compound 40, 3-(4-(4-Fluorophenyl)-1H-benzo[d]imidazol-2-yl)-5-(5-(pyrrolidin-1-ylmethyl)pyridin-3-yl)-1H-pyrazolo[3,4-c]pyridine] | 287 nM | 78 nM |
| O=C(Nc1cncc(-c2cc3c(-c4nc5c(-c6ccc(F)cc6)cccc5[nH]4)n[nH]c3cn2)c1)C1CCC1 [Compound 46, N-(5-(3-(4-(4-Fluorophenyl)-1H-benzo[d]imidazol-2-yl)-1H-pyrazolo[3,4-c]pyridin-5-yl)pyridin-3-yl)cyclobutanecarboxamide] | 48.9 nM | 94 nM |
| Fc1ccc(-c2cccc3[nH]c(-c4n[nH]c5cnc(-c6cncnc6)cc45)nc23)cc1 [Compound 52, 3-(4-(4-Fluorophenyl)-1H-benzo[d]imidazol-2-yl)-5-(pyrimidin-5-yl)-1H-pyrazolo[3,4-c]pyridine] | 122 nM | 147 nM |
| CC(C)C(=O)Nc1cncc(-c2cc3c(-c4nc5c(-c6ccccc6F)cccc5[nH]4)n[nH]c3cn2)c1 [Compound 61, N-(5-(3-(4-(2-Fluorophenyl)-1H-benzo[d]imidazol-2-yl)-1H-pyrazolo[3,4-c]pyridin-5-yl)pyridin-3-yl)isobutyramide] | 81.2 nM | 81 nM |
| CC(C)(C)CC(=O)Nc1cncc(-c2cc3c(-c4nc5c(-c6ccccc6F)cccc5[nH]4)n[nH]c3cn2)c1 [Compound 68, N-(5-(3-(4-(2-Fluorophenyl)-1H-benzo[d]imidazol-2-yl)-1H-pyrazolo[3,4-c]pyridin-5-yl)pyridin-3-yl)-3,3-dimethylbutanamide] | 164 nM | 1670 nM |
| O=C(Nc1cncc(-c2cc3c(-c4nc5c(-c6ccccc6F)cccc5[nH]4)n[nH]c3cn2)c1)C1CCCC1 [Compound 73, N-(5-(3-(4-(2-Fluorophenyl)-1H-benzo[d]imidazol-2-yl)-1H-pyrazolo[3,4-c]pyridin-5-yl)pyridin-3-yl)cyclopentanecarboxamide] | 123 nM | 1190 nM |
| CC(C)C(=O)Nc1cncc(-c2cc3c(-c4nc5c(-c6cccnc6)cccc5[nH]4)n[nH]c3cn2)c1 [Compound 87, N-(5-(3-(4-(Pyridin-3-yl)-1H-benzo[d]imidazol-2-yl)-1H-pyrazolo[3,4-c]pyridin-5-yl)pyridin-3-yl)isobutyramide] | 45.4 nM | 124 nM |
| CC(C)Nc1cncc(-c2cc3c(-c4nc5c(-c6cccnc6)cccc5[nH]4)n[nH]c3cn2)c1 [Compound 90, N-Isopropyl-5-(3-(4-(pyridin-3-yl)-1H-benzo[d]imidazol-2-yl)-1H-pyrazolo[3,4-c]pyridin-5-yl)pyridin-3-amine] | 13.9 nM | 9 nM |
| c1cncc(-c2cccc3[nH]c(-c4n[nH]c5cnc(-c6cncc(CN7CCCCC7)c6)cc45)nc23)c1 [Compound 93, 5-(5-(Piperidin-1-ylmethyl)pyridin-3-yl)-3-(4-(pyridin-3-yl)-1H-benzo[d]imidazol-2-yl)-1H-pyrazolo[3,4-c]pyridine] | 534 nM | 9 nM |
| c1ccc(CNCc2cncc(-c3cc4c(-c5nc6c(-c7cccnc7)cccc6[nH]5)n[nH]c4cn3)c2)cc1 [Compound 101, N-Benzyl-1-(5-(3-(4-(pyridin-3-yl)-1H-benzo[d]imidazol-2-yl)-1H-pyrazolo[3,4-c]pyridin-5-yl)pyridin-3-yl)methanamine] | 183 nM | 9 nM |
| Cc1ccncc1-c1cc2c(-c3nc4c(-c5ccncc5)cccc4[nH]3)n[nH]c2cn1 [Compound 109, 5-(4-Methylpyridin-3-yl)-3-(4-(pyridin-4-yl)-1H-benzo[d]imidazol-2-yl)-1H-pyrazolo[3,4-c]pyridine] | 42.5 nM | 29 nM |
| O=C(Nc1cncc(-c2cc3c(-c4nc5c(-c6ccncc6)cccc5[nH]4)n[nH]c3cn2)c1)C1CCCCC1 [Compound 126, N-(5-(3-(4-(Pyridin-4-yl)-1H-benzo[d]imidazol-2-yl)-1H-pyrazolo[3,4-c]pyridin-5-yl)pyridin-3-yl)cyclohexanecarboxamide] | > 10000 nM | 9990 nM |
| CCNCc1cncc(-c2cc3c(-c4nc5c(-c6ccccn6)cccc5[nH]4)n[nH]c3cn2)c1 [Compound 136, N-((5-(3-(4-(Pyridin-2-yl)-1H-benzo[d]imidazol-2-yl)-1H-pyrazolo[3,4-c]pyridin-5-yl)pyridin-3-yl)methyl)ethanamine] | 177 nM | 122 nM |
| O=C(Nc1cncc(-c2cc3c(-c4nc5c(-c6ccccn6)cccc5[nH]4)n[nH]c3cn2)c1)c1ccccc1 [Compound 141, N-(5-(3-(4-(Pyridin-2-yl)-1H-benzo[d]imidazol-2-yl)-1H-pyrazolo[3,4-c]pyridin-5-yl)pyridin-3-yl)benzamide] | 411 nM | 39 nM |
| CCCCC(=O)Nc1cncc(-c2cc3c(-c4nc5c(-c6ccccn6)cccc5[nH]4)n[nH]c3cn2)c1 [Compound 148, N-(5-(3-(4-(Pyridin-2-yl)-1H-benzo[d]imidazol-2-yl)-1H-pyrazolo[3,4-c]pyridin-5-yl)pyridin-3-yl)pentanamide] | 177 nM | 225 nM |
| c1ccc(-c2cccc3[nH]c(-c4n[nH]c5cnc(-c6cncc(CNCC7CCCC7)c6)cc45)nc23)nc1 [Compound 154, 1-Cyclopentyl-N-((5-(3-(4-(pyridin-2-yl)-1H-benzo[d]imidazol-2-yl)-1H-pyrazolo[3,4-c]pyridin-5-yl)pyridin-3-yl)methyl)methanamine] | 596 nM | 9 nM |
| CCC(=O)Nc1cncc(-c2cc3c(-c4nc5c(N6CCCCC6)cccc5[nH]4)n[nH]c3cn2)c1 [Compound 157, N-(5-(3-(4-(Piperidin-1-yl)-1H-benzo[d]imidazol-2-yl)-1H-pyrazolo[3,4-c]pyridin-5-yl)pyridin-3-yl)propionamide] | 97.2 nM | 99 nM |
| O=C(Nc1cncc(-c2cc3c(-c4nc5c(N6CCCCC6)cccc5[nH]4)n[nH]c3cn2)c1)C1CC1 [Compound 175, N-(5-(3-(4-(Piperidin-1-yl)-1H-benzo[d]imidazol-2-yl)-1H-pyrazolo[3,4-c]pyridin-5-yl)pyridin-3-yl)cyclopropanecarboxamide] | 76.9 nM | 187 nM |
| FC1(F)CCN(Cc2cncc(-c3cc4c(-c5nc6c(N7CCCCC7)cccc6[nH]5)n[nH]c4cn3)c2)C1 [Compound 181, 5-(5-((3,3-Difluoropyrrolidin-1-yl)methyl)pyridin-3-yl)-3-(4-(piperidin-1-yl)-1H-benzo[d]imidazol-2-yl)-1H-pyrazolo[3,4-c]pyridine] | 87.1 nM | 9 nM |
| Cc1cn(-c2cccc3[nH]c(-c4n[nH]c5cnc(-c6cncc(NC(=O)C(C)(C)C)c6)cc45)nc23)cn1 [Compound 190, N-(5-(3-(4-(4-Methyl-1H-imidazol-1-yl)-1H-benzo[d]imidazol-2-yl)-1H-pyrazolo[3,4-c]pyridin-5-yl)pyridin-3-yl)pivalamide] | 53.5 nM | 9 nM |
| Cc1cn(-c2cccc3[nH]c(-c4n[nH]c5cnc(-c6cncc(NC(=O)C7CCC7)c6)cc45)nc23)cn1 [Compound 202, N-(5-(3-(4-(4-Methyl-1H-imidazol-1-yl)-1H-benzo[d]imidazol-2-yl)-1H-pyrazolo[3,4-c]pyridin-5-yl)pyridin-3-yl)cyclobutanecarboxamide] | 63.2 nM | 9 nM |
| CN1CCN(c2cccc3[nH]c(-c4n[nH]c5cnc(-c6cncc(NC(=O)C7CCCC7)c6)cc45)nc23)CC1 [Compound 229, N-(5-(3-(4-(4-Methylpiperazin-1-yl)-1H-benzo[d]imidazol-2-yl)-1H-pyrazolo[3,4-c]pyridin-5-yl)pyridin-3-yl)cyclopentanecarboxamide] | 628 nM | 9990 nM |
| CN1CCN(c2cccc3[nH]c(-c4n[nH]c5cnc(-c6cncnc6)cc45)nc23)CC1 [Compound 234, 3-(4-(4-Methylpiperazin-1-yl)-1H-benzo[d]imidazol-2-yl)-5-(pyrimidin-5-yl)-1H-pyrazolo[3,4-c]pyridine] | 798 nM | 9 nM |
